Data published in the NIST ThermoML archive (doi:10.1016/j.fluid.2005.06.024).
± gives the expanded uncertainty stated by the source. Each block holds one compound with its values, some of them ahead of it.

Key:
[1] = 298.15 K; 101.3 kPa; Liquid
[2] = xn = mol fraction of the nth substance listed; details: 298.15 K, 101.3 kPa, Liquid

SMILES: CC(C)=O [acetone]
- mass density [1]: 784.37 ± 0.31 kg/m3
- speed of sound [1]: 1162 ± 2 m/s

SMILES: CC(C)=O [acetone] + CCOC(=O)OCC
- mass density ([2]; x1 = 1): 784.37 ± 0.31 kg/m3
- speed of sound ([2]; x1 = 1): 1162 ± 2 m/s

SMILES: CCC(C)=O [butanone]
- mass density [1]: 799.7 ± 0.35 kg/m3
- speed of sound [1]: 1192 ± 2 m/s

SMILES: CCC(C)=O [butanone] + CCOC(=O)OCC
- mass density ([2]; x1 = 1): 799.7 ± 0.35 kg/m3
- speed of sound ([2]; x1 = 1): 1192 ± 2 m/s

SMILES: CCOC(=O)OCC [diethyl carbonate]
- mass density [1]: 969.24 ± 0.27 kg/m3
- speed of sound [1]: 1178 ± 2 m/s

SMILES: CCOC(=O)OCC [diethyl carbonate] + CC(C)=O
- mass density ([2]; x2 = 0): 969.24 ± 0.27 kg/m3
- speed of sound ([2]; x2 = 0): 1178 ± 2 m/s
- mass density ([2]; x2 = 0.0384): 964.96 ± 0.27 kg/m3
- speed of sound ([2]; x2 = 0.0384): 1177 ± 2 m/s
- mass density ([2]; x2 = 0.0901): 959 ± 0.26 kg/m3
- speed of sound ([2]; x2 = 0.0901): 1176 ± 2 m/s
- mass density ([2]; x2 = 0.1832): 947.54 ± 0.26 kg/m3
- speed of sound ([2]; x2 = 0.1832): 1175 ± 2 m/s
- mass density ([2]; x2 = 0.2827): 934.21 ± 0.25 kg/m3
- speed of sound ([2]; x2 = 0.2827): 1173 ± 2 m/s
- mass density ([2]; x2 = 0.3847): 919.29 ± 0.25 kg/m3
- speed of sound ([2]; x2 = 0.3847): 1171 ± 2 m/s
- mass density ([2]; x2 = 0.4847): 903.08 ± 0.26 kg/m3
- speed of sound ([2]; x2 = 0.4847): 1170 ± 2 m/s
- mass density ([2]; x2 = 0.5888): 884.33 ± 0.26 kg/m3
- speed of sound ([2]; x2 = 0.5888): 1168 ± 2 m/s
- mass density ([2]; x2 = 0.6936): 863.26 ± 0.26 kg/m3
- speed of sound ([2]; x2 = 0.6936): 1166 ± 2 m/s
- mass density ([2]; x2 = 0.7967): 839.9 ± 0.27 kg/m3
- speed of sound ([2]; x2 = 0.7967): 1164 ± 2 m/s
- mass density ([2]; x2 = 0.9017): 813 ± 0.29 kg/m3
- speed of sound ([2]; x2 = 0.9017): 1162 ± 2 m/s
- mass density ([2]; x2 = 0.9546): 798.07 ± 0.3 kg/m3
- speed of sound ([2]; x2 = 0.9546): 1162 ± 2 m/s

SMILES: CCOC(=O)OCC [diethyl carbonate] + CCC(C)=O
- mass density ([2]; x2 = 0): 969.24 ± 0.27 kg/m3
- speed of sound ([2]; x2 = 0): 1178 ± 2 m/s
- mass density ([2]; x2 = 0.0486): 963.14 ± 0.27 kg/m3
- speed of sound ([2]; x2 = 0.0486): 1178 ± 2 m/s
- mass density ([2]; x2 = 0.1002): 956.52 ± 0.28 kg/m3
- speed of sound ([2]; x2 = 0.1002): 1179 ± 2 m/s
- mass density ([2]; x2 = 0.1958): 943.68 ± 0.28 kg/m3
- speed of sound ([2]; x2 = 0.1958): 1180 ± 2 m/s
- mass density ([2]; x2 = 0.2977): 929.22 ± 0.29 kg/m3
- speed of sound ([2]; x2 = 0.2977): 1181 ± 2 m/s
- mass density ([2]; x2 = 0.399): 913.95 ± 0.29 kg/m3
- speed of sound ([2]; x2 = 0.399): 1182 ± 2 m/s
- mass density ([2]; x2 = 0.4976): 898.2 ± 0.31 kg/m3
- speed of sound ([2]; x2 = 0.4976): 1184 ± 2 m/s
- mass density ([2]; x2 = 0.6444): 872.87 ± 0.31 kg/m3
- speed of sound ([2]; x2 = 0.6444): 1186 ± 2 m/s
- mass density ([2]; x2 = 0.7172): 859.36 ± 0.32 kg/m3
- speed of sound ([2]; x2 = 0.7172): 1187 ± 2 m/s
- mass density ([2]; x2 = 0.8294): 837.19 ± 0.33 kg/m3
- speed of sound ([2]; x2 = 0.8294): 1189 ± 2 m/s
- mass density ([2]; x2 = 0.9031): 821.58 ± 0.34 kg/m3
- speed of sound ([2]; x2 = 0.9031): 1190 ± 2 m/s
- mass density ([2]; x2 = 0.9554): 810.05 ± 0.34 kg/m3
- speed of sound ([2]; x2 = 0.9554): 1191 ± 2 m/s

SMILES: CCOC(=O)OCC [diethyl carbonate] + CCCC(C)=O
- mass density ([2]; x2 = 0): 969.24 ± 0.27 kg/m3
- speed of sound ([2]; x2 = 0): 1178 ± 2 m/s

- mass density [1]: 801.39 ± 0.35 kg/m3
- speed of sound [1]: 1212 ± 2 m/s
SMILES: CCCC(C)=O [pentan-2-one]

- mass density ([2]; x1 = 0.0483): 962.08 ± 0.27 kg/m3
- speed of sound ([2]; x1 = 0.0483): 1179 ± 2 m/s
- mass density ([2]; x1 = 0.0983): 954.6 ± 0.28 kg/m3
- speed of sound ([2]; x1 = 0.0983): 1180 ± 2 m/s
- mass density ([2]; x1 = 0.1923): 940.27 ± 0.28 kg/m3
- speed of sound ([2]; x1 = 0.1923): 1183 ± 2 m/s
- mass density ([2]; x1 = 0.2988): 923.61 ± 0.29 kg/m3
- speed of sound ([2]; x1 = 0.2988): 1187 ± 2 m/s
- mass density ([2]; x1 = 0.3998): 907.38 ± 0.3 kg/m3
- speed of sound ([2]; x1 = 0.3998): 1190 ± 2 m/s
- mass density ([2]; x1 = 0.4996): 890.92 ± 0.31 kg/m3
- speed of sound ([2]; x1 = 0.4996): 1193 ± 2 m/s
- mass density ([2]; x1 = 0.6034): 873.34 ± 0.31 kg/m3
- speed of sound ([2]; x1 = 0.6034): 1197 ± 2 m/s
- mass density ([2]; x1 = 0.7077): 855.18 ± 0.32 kg/m3
- speed of sound ([2]; x1 = 0.7077): 1201 ± 2 m/s
- mass density ([2]; x1 = 0.8037): 838 ± 0.33 kg/m3
- speed of sound ([2]; x1 = 0.8037): 1204 ± 2 m/s
- mass density ([2]; x1 = 0.9026): 819.83 ± 0.34 kg/m3
- speed of sound ([2]; x1 = 0.9026): 1208 ± 2 m/s
- mass density ([2]; x1 = 0.9491): 811.1 ± 0.34 kg/m3
- speed of sound ([2]; x1 = 0.9491): 1210 ± 2 m/s
- mass density ([2]; x1 = 1): 801.39 ± 0.35 kg/m3
- speed of sound ([2]; x1 = 1): 1212 ± 2 m/s
SMILES: CCCC(C)=O [pentan-2-one] + CCOC(=O)OCC
